Data from patent publication US10815226B2, “Heteroaryl compounds as inhibitors of necrosis, composition and application thereof” (ACCRO BIOSCIENCE INC., priority 2016, dated 2020).

Columns and labels:
HT29 cells [1] = assay: HT29 cell necroptosis assay (TNF-α/Smac mimetic/z-VAD induced necrosis, viability); format: cell-based, human; details: 10 μM test compound pretreated one hour, TNF-α (40 ng/mL), Smacmimetic (100 nM), z-VAD (20 μM) for 48 hours
Method: Biological in Vitro HT29 Cell Assay.
The efficacies of RIP1 inhibitors were tested in vitro using human colon cancer TH29 cells in a necroptosis assay. For the assay, Cells were added to 96-well plates and then 10 μM of the test compound was pretreated for one hour. Then the cells were treated with TNF-α (40 ng/mL), Smacmimetic (100 nM) and z-VAD (20 μM) for 48 hours, and the viability was quantified. DMSO pretreatment group was negative control, Nec-1 pretreatment group was positive control.

HT29 cells [2] = assay: as above; format: cell-based, human; details: TNF-α/Smacmimetic/z-VAD induced necrosis
[3] = Homo sapiens, HT-29, HT29 cells, values in nM
[4] = Homo sapiens, HT-29, HT29 cells, values given in μM

`CC(=O)Nc1nc2ccc(-c3cnc(Cl)c(NC(=O)c4ccccn4)c3)cc2s1` [Compound A2] was tested, and the “HT29 Inhibition (10 μM)” value (HT29 cells [1]) was 8%.

With `CC(C)(C)OC(=O)NCCCNc1nc2ccc(-c3cnc(Cl)c(NC(=O)c4cccc(F)c4)c3)cc2s1` [Compound A6] the “HT29 Inhibition (10 μM)” value (HT29 cells [1]) was 5%.

In the case of `NCCCNc1nc2ccc(-c3cnc(Cl)c(NC(=O)c4cccc(F)c4)c3)cc2s1` [Compound A7], the “HT29 Inhibition (10 μM)” value (HT29 cells [1]) is reported as 8%.

With `CC(=O)Nc1nc2ccc(-c3cnc(CCCNC(=O)CCCCCNC(=O)CCCC[C@H]4SC[C@H]5NC(=O)N[C@H]54)c(NC(=O)c4cccc(F)c4)c3)cc2s1` [Compound A8] the “HT29 Inhibition (10 μM)” value (HT29 cells [1]) was 10%.

In the case of `O=C(CCCC[C@@H]1SC[C@@H]2NC(=O)N[C@@H]21)NCCCCCC(=O)NCCCNc1nc2ccc(-c3cnc(Cl)c(NC(=O)c4cccc(F)c4)c3)cc2s1` [Compound A9], the “HT29 Inhibition (10 μM)” value (HT29 cells [1]) is reported as 8%.

With `O=C(Nc1cc(-c2ccc3nncn3c2)cnc1Cl)c1cccc(F)c1` [Compound A10] the “HT29 Inhibition (10 μM)” value (HT29 cells [1]) was 1%.

In the case of `O=C(Nc1cc(-c2ccc3ncsc3c2)cnc1Cl)c1cccc(F)c1` [Compound A11], the “HT29 Inhibition (10 μM)” value (HT29 cells [1]) is reported as 8%.

In the case of `CC(=O)Nc1nc2ccc(-c3cncc(NC(=O)Cc4cccc(F)c4)c3)cc2s1` [Compound A17], the “HT29 Inhibition (10 μM)” value (HT29 cells [1]) is reported as 45%.

For `Cc1ncc(-c2ccc3nc(NC(=O)CCCCCNC(=O)CCCCCNC(=O)CCCC[C@@H]4SC[C@@H]5NC(=O)N[C@@H]54)sc3c2)cc1NC(=O)Cc1ccccc1` [Compound A32], the “HT29 Inhibition (10 μM)” value (HT29 cells [1]) was 21%.

`CC(=O)Nc1nc2ccc(-c3cncc(NC(=O)Cc4ccccc4)n3)cc2s1` [Compound A33] was tested, and the “HT29 Inhibition (10 μM)” value (HT29 cells [1]) was 1%.

In the case of `CC(=O)Nc1nc2ccc(-c3cncc(NC(=O)Cc4ccccc4Cl)n3)cc2s1` [Compound A34], the “HT29 Inhibition (10 μM)” value (HT29 cells [1]) is reported as 1%.

With `CC(=O)Nc1nc2ccc(-c3cccc(NC(=O)Cc4ccccc4Cl)n3)cc2s1` [Compound A35] the “HT29 Inhibition (10 μM)” value (HT29 cells [1]) was 1%.

In the case of `CC(=O)Nc1nc2ccc(-c3cnc(C)c(NC(=O)CN4CCOCC4)c3)cc2s1` [Compound A38], the “HT29 Inhibition (10 μM)” value (HT29 cells [1]) is reported as 33%.

In the case of `CC(=O)Nc1nc2ccc(-c3cnc(C)c(NC(=O)CN4CCC(O)CC4)c3)cc2s1` [Compound A39], the “HT29 Inhibition (10 μM)” value (HT29 cells [1]) is reported as 9%.

For `CC(=O)Nc1nc2ccc(-c3cnc(C)c(NC(=O)CN4CCCC4)c3)cc2s1` [Compound A41], the “HT29 Inhibition (10 μM)” value (HT29 cells [1]) was 14%.

For `CC(=O)Nc1nc2ccc(-c3cnc(C)c(NC(=O)CC4CC4)c3)cc2s1` [Compound A42, N-(5-(2-acetamidobenzo[d]thiazol-6-yl)-2-methylpyridin-3-yl)-2-cyclopropylacetamide], the “HT29 Inhibition (10 μM)” value (HT29 cells [1]) was 22%.

Molecule `CC(=O)Nc1nc2ccc(-c3cnc(C)c(NC(=O)OC4CCCC4)c3)cc2s1` [Compound A47] has an IC50 (HT29 cells [2]; [3]) of 124 nM.

Molecule `CC(=O)Nc1nc2ccc(-c3cnc(C)c(NC(=O)OC(C)(C)C)c3)cc2s1` [Compound A48] has an IC50 (HT29 cells [2]; [3]) of 500 nM.

In the case of `CC(=O)Nc1nc2ccc(-c3cnc(C)c(NC(=O)NC4CCCCC4)c3)cc2s1` [Compound A49], the IC50 (HT29 cells [2]; [3]) is reported as 357 nM.

`CC(=O)Nc1cn2cc(-c3cnc(C)c(NC(=O)OC4CCCCC4)c3)ccc2n1` [Compound A50, Cyclohexyl (5-(2-acetamidoimidazo[1,2-a]pyridin-6-yl)-2-methylpyridin-3-yl)carbamate] was tested, and the IC50 (HT29 cells [2]; [3]) was 97 nM.

Molecule `CC(=O)Nc1nc2ccc(-c3cc(NC(=O)OC4CCCCC4)c(C)cn3)cc2s1` [Compound A51] has an IC50 (HT29 cells [2]; [3]) of 73 nM.

`CCOC(=O)Nc1cc(-c2ccc3nc(NC(C)=O)sc3c2)cnc1C` [Compound A52] was tested, and the “HT29 Inhibition (10 μM)” value (HT29 cells [1]) was 10%.

Molecule `CC(=O)Nc1nc2ccc(-c3cnc(C)c(NC(=O)OC4CCCCC4)c3)cn2n1` [Compound A53] has an IC50 (HT29 cells [2]; [4]) of 2190 nM.

`CC(=O)Nc1nc2ccc(-c3cnc(C)c(NC(=O)OC4CCOCC4)c3)cc2s1` [Compound A55] showed an IC50 (HT29 cells [2]; [3]) of 253 nM.

Work on `CC(=O)Nc1nc2ccc(-c3cnc(C)c(NC(=O)OC4CCC(F)(F)CC4)c3)cc2s1` [Compound A59] yielded an IC50 (HT29 cells [2]; [3]) of 689 nM.

`CCC(=O)Nc1nc2ccc(-c3cnc(C)c(NC(=O)OC4CCCCC4)c3)cc2s1` [Compound A60] showed an IC50 (HT29 cells [2]; [3]) of 53 nM.

`CCOC(=O)Nc1nc2ccc(-c3cnc(C)c(NC(=O)OC4CCCCC4)c3)cc2s1` [Compound A62] showed an IC50 (HT29 cells [2]; [3]) of 63 nM.

In the case of `CC(=O)Nc1nc2ncc(-c3cnc(C)c(NC(=O)OC4CCCCC4)c3)cc2s1` [Compound A63], the “HT29 Inhibition (10 μM)” value (HT29 cells [1]) is reported as 9%.

`CC(=O)Nc1nc2cnc(-c3cnc(C)c(NC(=O)OC4CCCCC4)c3)cc2s1` [Compound A64] was tested, and the IC50 (HT29 cells [2]; [4]) was 1000 nM.

`CC(=O)Nc1cn2nc(-c3cnc(C)c(NC(=O)OC4CCCCC4)c3)ccc2n1` [Compound A65] gave an IC50 (HT29 cells [2]; [3]) of 167 nM.

Molecule `CC(=O)Nc1nc2ccc(-c3cc(NC(=O)OC4CCCCC4)c(C)nn3)cc2s1` [Compound A66, Cyclohexyl 6-(2-acetamidobenzo[d]thiazol-6-yl)-3-methylpyridazin-4-ylcarbamate] has an IC50 (HT29 cells [2]; [3]) of 247 nM.

In the case of `Cc1ncc(-c2ccc3nc(NC(=O)C4CC4)cn3n2)cc1NC(=O)OC1CCCCC1` [Compound A67], the IC50 (HT29 cells [2]; [3]) is reported as 31 nM.

`Cc1ncc(-c2ccc3nc(NC(=O)C4CC4)sc3c2)cc1NC(=O)OC1CCCOC1` (stereo not drawn) [Compound A68] was tested, and the IC50 (HT29 cells [2]; [3]) was 31 nM.

For `COc1ncc(-c2ccc3nc(NC(C)=O)sc3c2)cc1NC(=O)OC1CCCCC1` [Compound A69], the IC50 (HT29 cells [2]; [3]) was 107 nM.

Work on `Cc1ncc(-c2ccc3nc(N)sc3c2)cc1NC(=O)OC1CCCCC1` [Compound A70, Cyclohexyl (5-(2-aminobenzo[d]thiazol-6-yl)-2-methylpyridin-3-yl)carbamate] yielded an IC50 (HT29 cells [2]; [3]) of 93 nM.

`Cc1ncc(-c2ccc3nc(NC(=O)C4CC4)sc3c2)cc1NC(=O)OC1CCOCC1` [Compound A71] showed an IC50 (HT29 cells [2]; [3]) of 12 nM.

Molecule `CC(=O)Nc1nc2ccc(-c3cnc(C#N)c(NC(=O)OC4CCCCC4)c3)cc2s1` [Compound A72] has an IC50 (HT29 cells [2]; [3]) of 534 nM.

In the case of `CC(=O)Nc1nc2ccc(-c3cnc(C)c(NC(=O)OC(C)C)c3)cc2s1` [Compound A73], the IC50 (HT29 cells [2]; [3]) is reported as 287 nM.

With `CC(=O)Nc1nc2ccc(-c3cnc(C)c(NC(=O)OCc4ccccc4)c3)cc2s1` [Compound A74] the “HT29 Inhibition (10 μM)” value (HT29 cells [1]) was 8%.

In the case of `CC(=O)Nc1nc2ccc(-c3ccnc(NC(=O)OC4CCCCC4)c3)cc2s1` [Compound A75], the “HT29 Inhibition (10 μM)” value (HT29 cells [1]) is reported as 6%.

For `CC(=O)Nc1nc2ccc(-c3cc(NC(=O)OC4CCCCC4)ncn3)cc2s1` [Compound A76], the “HT29 Inhibition (10 μM)” value (HT29 cells [1]) was 5%.

For `CC(=O)Nc1nc2ccc(-c3cnc(C)c(NC(=O)OC4CCC5(CC4)OCCO5)c3)cc2s1` [Compound A77], the “HT29 Inhibition (10 μM)” value (HT29 cells [1]) was 60%.

Work on `CC(=O)Nc1nc2ccc(-c3cnc(C)c(NC(=O)OC4CCC(=O)CC4)c3)cc2s1` [Compound A78] yielded an IC50 (HT29 cells [2]; [3]) of 867 nM.

With `CC(=O)Nc1nc2ccc(-c3cnc(C)c(NC(=O)O[C@H]4CC[C@H](O)CC4)c3)cc2s1` [Compound A79] the “HT29 Inhibition (10 μM)” value (HT29 cells [1]) was 35%.

`CC(=O)Nc1nc2ccc(-c3cnc(C)c(NC(=O)O[C@H]4CC[C@@H](O)CC4)c3)cc2s1` [Compound A80] gave an IC50 (HT29 cells [2]; [3]) of 653 nM.

`Cc1ncc(-c2ccc3nc(NC(=O)C4CC4)cn3c2)cc1NC(=O)OC1CCCCC1` [Compound A81, Cyclohexyl (5-(2-(cyclopropanecarboxamido)imidazo[1,2-a]pyridin-6-yl)-2-methylpyridin-3-yl)carbamate] gave an IC50 (HT29 cells [2]; [3]) of 9 nM.

In the case of `CC(=O)Nc1nc2ccc(-c3cnc(C)c(NC(=O)Oc4ccccc4)c3)cc2s1` [Compound A82], the “HT29 Inhibition (10 μM)” value (HT29 cells [1]) is reported as 7%.

Molecule `CC(=O)Nc1nc2ccc(-c3cnc(Cl)c(NC(=O)OC4CCCCC4)c3)cc2s1` [Compound A83] has an IC50 (HT29 cells [2]; [3]) of 45 nM.

`CC(=O)Nc1nc2ccc(-c3cnc(F)c(NC(=O)OC4CCCCC4)c3)cc2s1` [Compound A84] gave an IC50 (HT29 cells [2]; HT29 cells, values in nM) of 31 nM.

For `Cc1ncc(-c2ccc3nc(NS(C)(=O)=O)sc3c2)cc1NC(=O)OC1CCCCC1` [Compound A85], the “HT29 Inhibition (10 μM)” value (HT29 cells [1]) was 7%.

With `CCC(C)OC(=O)Nc1cc(-c2ccc3nc(NC(C)=O)sc3c2)cnc1C` (stereo not drawn) [Compound A86] the IC50 (HT29 cells [2]; [3]) was 87 nM.

With `Cc1ncc(-c2ccc3nc(NCC#N)sc3c2)cc1NC(=O)OC1CCCCC1` [Compound A91] the “HT29 Inhibition (10 μM)” value (HT29 cells [1]) was 40%.

`CC(=O)Nc1nc2ccc(-c3cnc(C)c(NC(=O)OC4COC4)c3)cc2s1` [Compound A93] was tested, and the “HT29 Inhibition (10 μM)” value (HT29 cells [1]) was 8%.

For `CC(=O)Nc1ncc2cc(-c3cnc(C)c(NC(=O)OC4CCCCC4)c3)ccc2n1` [Compound A96], the “HT29 Inhibition (10 μM)” value (HT29 cells [1]) was 8%.

For `Cc1ncc(-c2ccc3[nH]c(=O)ccc3c2)cc1NC(=O)OC1CCCCC1` [Compound A97], the “HT29 Inhibition (10 μM)” value (HT29 cells [1]) was 7%.

For `CC(=O)Nc1ncc2ccc(-c3cnc(C)c(NC(=O)OC4CCCCC4)c3)cc2n1` [Compound A98], the “HT29 Inhibition (10 μM)” value (HT29 cells [1]) was 50%.

With `O=C(Cc1ccccc1)Nc1cc(-c2ccc3ncsc3c2)cnc1Cl` [Compound A100] the “HT29 Inhibition (10 μM)” value (HT29 cells [1]) was 9%.

With `Cc1ncc(-c2ccc3nc(N(C)C(=O)CCCCCNC(=O)OC(C)(C)C)sc3c2)cc1NC(=O)Cc1ccccc1` [Compound A101] the “HT29 Inhibition (10 μM)” value (HT29 cells [1]) was 5%.

With `Cc1ncc(-c2ccc3nc(N(C)C(=O)CCCCCNC(=O)CCCCCNC(=O)CCCC[C@@H]4SC[C@@H]5NC(=O)N[C@@H]54)sc3c2)cc1NC(=O)Cc1ccccc1` [Compound A102] the “HT29 Inhibition (10 μM)” value (HT29 cells [1]) was 5%.

For `CNc1nc2ccc(-c3cnc(C)c(NC(=O)OC4CCCCC4)c3)cc2s1` [Compound A103], the “HT29 Inhibition (10 μM)” value (HT29 cells [1]) was 20%.
